# Laboratory results reported in publication PMC6288363, “A Novel Selective JAK2 Inhibitor Identified Using Pharmacological Interactions” (Frontiers in Pharmacology, 2018).
# pKd: −log10 of the molar value.
# Experiments:
# JAK2 = biological target: T1, JAK2 (Homo sapiens, UniProt O60674); assay: KINOMEscan bead-based competition Kd; also Z'LYTE kinase assay, […] inhibition at […]; type: binding
# T1 construct: JH1 domain
# JAK3 = biological target: T2, JAK3 (Homo sapiens, UniProt P52333); assay: KINOMEscan bead-based competition Kd; type: binding
# T2 sequence (P52333 1-1124): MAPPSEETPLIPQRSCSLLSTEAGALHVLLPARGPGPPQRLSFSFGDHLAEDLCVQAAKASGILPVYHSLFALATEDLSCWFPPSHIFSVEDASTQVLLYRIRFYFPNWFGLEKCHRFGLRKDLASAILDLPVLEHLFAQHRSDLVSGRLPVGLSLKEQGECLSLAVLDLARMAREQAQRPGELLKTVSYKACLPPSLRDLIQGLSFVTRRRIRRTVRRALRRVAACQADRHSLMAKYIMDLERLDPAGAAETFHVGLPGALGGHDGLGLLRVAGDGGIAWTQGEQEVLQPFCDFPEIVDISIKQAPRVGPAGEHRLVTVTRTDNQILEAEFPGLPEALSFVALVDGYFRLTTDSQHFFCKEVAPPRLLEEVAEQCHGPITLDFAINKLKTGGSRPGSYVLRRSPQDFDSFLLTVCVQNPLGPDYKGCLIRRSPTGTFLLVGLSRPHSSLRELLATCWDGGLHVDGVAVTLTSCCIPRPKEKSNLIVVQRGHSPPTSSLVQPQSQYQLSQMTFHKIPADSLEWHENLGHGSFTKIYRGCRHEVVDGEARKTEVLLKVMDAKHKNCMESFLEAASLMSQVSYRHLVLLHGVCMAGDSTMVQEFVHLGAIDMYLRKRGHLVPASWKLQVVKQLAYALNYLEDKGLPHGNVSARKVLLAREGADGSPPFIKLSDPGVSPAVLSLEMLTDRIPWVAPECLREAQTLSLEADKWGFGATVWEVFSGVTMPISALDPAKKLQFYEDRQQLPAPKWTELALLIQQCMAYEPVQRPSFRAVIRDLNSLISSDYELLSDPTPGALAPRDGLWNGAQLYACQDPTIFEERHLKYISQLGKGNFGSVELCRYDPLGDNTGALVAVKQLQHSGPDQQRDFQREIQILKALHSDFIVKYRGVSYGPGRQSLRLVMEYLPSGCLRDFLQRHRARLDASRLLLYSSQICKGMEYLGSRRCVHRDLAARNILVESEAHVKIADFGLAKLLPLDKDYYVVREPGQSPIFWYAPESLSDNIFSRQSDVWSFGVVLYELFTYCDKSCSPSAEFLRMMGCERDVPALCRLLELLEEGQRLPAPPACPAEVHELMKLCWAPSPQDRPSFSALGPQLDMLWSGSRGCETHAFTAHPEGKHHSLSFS
# T1 sequence (O60674 840-1132 limits assumed): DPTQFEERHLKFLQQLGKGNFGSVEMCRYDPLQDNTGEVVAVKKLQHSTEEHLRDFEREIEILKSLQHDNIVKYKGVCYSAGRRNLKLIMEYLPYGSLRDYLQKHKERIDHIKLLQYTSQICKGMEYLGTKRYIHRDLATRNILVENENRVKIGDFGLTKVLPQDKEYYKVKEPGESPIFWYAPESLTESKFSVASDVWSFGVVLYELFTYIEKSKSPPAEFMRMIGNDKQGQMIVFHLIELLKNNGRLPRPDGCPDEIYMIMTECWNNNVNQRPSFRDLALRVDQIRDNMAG
compound,measurement,setting,value
CCN(CC)CC[C@H](CNc1ccnc2cc(Cl)ccc12)c1ccc(O)cc1 [NSC13626],pKd,JAK2,5.18
same,pKd,JAK3,5.34
